Assay results from patent US20260176260A1, “DUAL RAF AND TUBULIN INHIBITORS AND METHODS OF USE THEREOF” (Deciphera Pharmaceuticals, LLC, priority 2023, published 2026).
Read-outs that look alike come from different tables or passages of the source.

Key:
MiaPaca-2 cells = experiment: MiaPaca-2 cell proliferation assay (resazurin); assay type: cell-based; settings: Homo sapiens, MIA PaCa-2
Experimental: MiaPaca-2 cells (catalog #CRL-1420) are obtained from the American Type Culture Collect (ATTC, Manassas, VA). Briefly, cells were grown in DMVEM supplemented with […] fetal bovine serum (Invitrogen, Carlsbad, CA), 2.5% New Zealand sourced horse serum and 1% Penicillin/Streptomycin/L-Glutamine at 37° C., […], and […]. Cells are expanded until reaching […] at which point they are sub-cultured or harvested for assay use. For assays completed in 96-well plates, a serial dilution of test compound is dispensed into a 96-well black clear bottom plate in triplicate. Three thousand cells are added per well in 200 μL complete growth medium in the 96-well plate. Plates are incubated for 67 to 72 h at 37° C., 5% CO2, and 95% humidity. At the end of the incubation, 40 μL of a […] solution of resazurin (Sigma, St. Louis, MO) in PBS is added to each well of the plate and plates are incubated for an additional 5 to 6 h at 37° C., 5% CO2, and 95% humidity. For 384-well assays, a threefold, 8-point serial dilution of compound was spotted column wise into a 384 well black, clear bottom, tissue culture treated plate using the Beckman Coulter Echo 650. Likewise, a threefold, 8-point serial dilution of cobimetinib was spotted row wise into the 384 well black, clear bottom plate containing compound. DMSO concentration was constant across all wells at 0.4%. Seven hundred fifty cells are added per well in 50 μL complete growth medium in each 384-well plate. Plates are incubated for 67 to 72 h at 37° C., 5% CO2, and 95% humidity. At the end of the incubation, 10 μL of a 440 μM solution of resazurin (Sigma, St. Louis, MO) in PBS is added to each well of the plate and plates are incubated for an additional 4 to 6 h at 37° C., 5% CO2, and 95% humidity. Plates are read on a Synergy2 or equivalent reader (Biotek, Winooski VT) using an excitation of 540 nm and an emission of 600 nm. Data is analyzed using Prism software (Graphpad, San Diego, CA) to calculate IC50 values.

HCT-116 cells = experiment: HCT-116 cell proliferation assay (resazurin); assay type: cell-based; settings: Homo sapiens
Experimental: HCT-116 cells (catalog #CCL-247) are obtained from the American Type Culture Collect (ATCC, Manassas, VA). Briefly, cells are grown in McCoy's 5A supplemented with 10% characterized fetal bovine serum (Invitrogen, Carlsbad, CA) and 1% Penicillin/Streptomycin/L-Glutamine at 37° C., 5% CO2, and 95% humidity. Cells are expanded until reaching 70-95% confluency at which point they are sub-cultured or harvested for assay use. A serial dilution of test compound is dispensed into a 384-well black clear bottom plate in triplicate. 375 cells are added per well in 50 μL complete growth medium in the 384-well plate. Plates are incubated for 67 to 72 h at 37° C., 5% CO2, and 95% humidity. At the end of the incubation, 40 μL of a […] solution of resazurin (Sigma, St. Louis, MO) in PBS is added to each well of the plate and plates are incubated for an additional 4 to 5 h at 37° C., 5% CO2, and 95% humidity. Plates are read on a Synergy2 or equivalent reader (Biotek, Winooski, VT) using an excitation of 540 nm and an emission of 600 nm. Data is analyzed using Prism software (Graphpad, San Diego, CA) to calculate IC50 values.

HPAF-II cells = experiment: HPAF-II cell proliferation assay (resazurin); assay type: cell-based; settings: Homo sapiens
Experimental: HPAF-II cells (catalog #CRL-1997) are obtained from the American Type Culture Collect (ATCC, Manassas, VA). Briefly, cells are grown in Minimum Essential Media supplemented with 10% characterized fetal bovine serum (Invitrogen, Carlsbad, CA) and 1% Penicillin/Streptomycin/L-Glutamine at 37° C., 5% CO2, and 95% humidity. Cells are expanded until reaching 70-95% confluency at which point they are sub-cultured or harvested for assay use. A serial dilution of test compound is dispensed into a 384-well black clear bottom plate in triplicate. 750 cells are added per well in 50 μL complete growth medium in the 384-well plate. Plates are incubated for 115 to 120 h at 37° C., 5% CO2, and 95% humidity. At the end of the incubation, 40 μL of a […] solution of resazurin (Sigma, St. Louis, MO) in PBS is added to each well of the plate and plates are incubated for an additional 18 to 24 h at 37° C., 5% CO2, and 95% humidity. Plates are read on a Synergy2 or equivalent reader (Biotek, Winooski, VT) using an excitation of 540 nm and an emission of 600 nm. Data is analyzed using Prism software (Graphpad, San Diego, CA) to calculate IC50 values.

Porcine Brain Tubulin = molecular target: T1, Porcine Brain Tubulin (Sus scrofa, UniProt P02550+P02554); experiment: Biochemical tubulin polymerization assay
T1 construct: Porcine Brain Tubulin (T240); purchased Cytoskeleton, Inc T240; BK011P; host or cells: porcine brain
T1 sequence (P02550 whole entry): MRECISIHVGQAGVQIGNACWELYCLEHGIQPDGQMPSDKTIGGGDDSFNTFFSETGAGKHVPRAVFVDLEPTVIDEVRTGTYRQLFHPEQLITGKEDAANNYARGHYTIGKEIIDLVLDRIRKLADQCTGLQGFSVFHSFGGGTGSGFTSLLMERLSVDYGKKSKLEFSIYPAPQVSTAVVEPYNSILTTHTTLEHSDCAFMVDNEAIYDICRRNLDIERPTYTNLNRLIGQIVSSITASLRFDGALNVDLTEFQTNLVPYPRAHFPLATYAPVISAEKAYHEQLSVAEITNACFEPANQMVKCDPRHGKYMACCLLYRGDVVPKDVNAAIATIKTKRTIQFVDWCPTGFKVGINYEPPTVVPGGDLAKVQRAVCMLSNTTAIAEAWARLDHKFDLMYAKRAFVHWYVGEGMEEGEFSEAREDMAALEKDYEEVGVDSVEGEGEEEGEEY
T1 sequence (P02554 whole entry): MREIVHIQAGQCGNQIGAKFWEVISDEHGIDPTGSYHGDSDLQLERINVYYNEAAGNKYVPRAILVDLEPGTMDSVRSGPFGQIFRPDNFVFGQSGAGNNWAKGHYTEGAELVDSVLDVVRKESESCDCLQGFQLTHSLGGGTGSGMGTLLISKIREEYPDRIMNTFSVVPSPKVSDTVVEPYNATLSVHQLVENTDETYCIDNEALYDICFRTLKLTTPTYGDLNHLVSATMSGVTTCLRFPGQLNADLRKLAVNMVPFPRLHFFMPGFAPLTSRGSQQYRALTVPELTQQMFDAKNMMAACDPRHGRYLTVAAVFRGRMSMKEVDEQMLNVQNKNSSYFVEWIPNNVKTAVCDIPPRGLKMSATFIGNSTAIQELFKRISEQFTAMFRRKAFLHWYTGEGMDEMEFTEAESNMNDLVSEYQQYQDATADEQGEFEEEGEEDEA

[1] = test system: tubulin polymerization in HCT-116 cells; experiment: Cellular tubulin polymerization assay (pellet/supernatant a-tubulin, HCT-116 cells); assay type: cell-based
Experimental: HCT-116 cells (catalog #CCL-247) are obtained from the American Type Culture Collect (ATCC, Manassas, VA). Briefly, cells are grown in McCoy's 5A supplemented with 10% characterized fetal bovine serum (Invitrogen, Carlsbad, CA) and 1% Penicillin/Streptomycin/L-Glutamine at 37° C., 5% CO2, and 95% humidity. Cells are expanded until reaching 70-95% confluency at which point they are sub-cultured or harvested for assay use. 450000 cells are added per well in 1500 μL complete growth medium in a tissue culture treated, 12-well plate. Plates are incubated for 18 to 24 h at 37° C., 5% CO2, and 95% humidity. At the end of the incubation, 2000 μL of base culture media is added to each well, followed by a serial dilution of compound. Plates are incubated for an additional 1 h at 37° C., 5% CO2, and 95% humidity. Lysates are generated by the addition of 100 μL Lysis and Microtubule Stabilization Buffer 1 (LMS01, Cytoskeleton Inc, Denver, CO) supplemented with GTP (BST06, Cytoskeleton Inc), ATP (BSA04, Cytoskeleton Inc), and Protease Inhibitor Cocktail Stock (PIC02, Cytoskeleton Inc). Cells are scraped off wells using a rubber cell scraper and collected in a clean 96-well plate. Lysates are centrifuged at 1000×g, 37° C. for 10 min and supernatant fraction is placed into an additional 96-well plate. The remaining pellet fraction is reconstituted in 100 μL LMS01 buffer and sonicated for 10 min. Pellet and Supernatant fractions are probed for a-tubulin via western blot analysis on the Jess System or equivalent (Bio-techne, Minneapolis, MN). Data is analyzed using Prism software (Graphpad, San Diego, CA) to calculate IC50 values.

B-Raf kinase = molecular target: T2, B-Raf kinase (Homo sapiens, UniProt P15056); experiment: Biochemical assay for B-Raf (coupled pyruvate kinase/lactate dehydrogenase); settings: Table 4; read-out: BRAF IC50
T2 construct: purchased Sigma
T2 sequence (P15056 416-766): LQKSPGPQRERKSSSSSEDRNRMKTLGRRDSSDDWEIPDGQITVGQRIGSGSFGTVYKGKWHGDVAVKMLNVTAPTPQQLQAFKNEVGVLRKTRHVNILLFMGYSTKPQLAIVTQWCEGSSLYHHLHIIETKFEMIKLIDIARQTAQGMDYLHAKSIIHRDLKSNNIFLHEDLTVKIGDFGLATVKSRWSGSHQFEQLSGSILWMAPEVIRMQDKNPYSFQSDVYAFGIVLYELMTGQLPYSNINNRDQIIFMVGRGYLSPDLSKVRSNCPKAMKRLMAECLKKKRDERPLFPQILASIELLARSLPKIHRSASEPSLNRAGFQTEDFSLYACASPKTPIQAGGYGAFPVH

C-Raf kinase = molecular target: T3, C-Raf kinase (Homo sapiens, UniProt P04049, Y340D/Y341D); experiment: Biochemical assay for C-Raf (coupled pyruvate kinase/lactate dehydrogenase); settings: Table 4; read-out: CRAF IC50
T3 construct: C-Raf residues 306-end; Y340D, Y341D with N-; purchased Sigma
T3 sequence (P04049 307-648 Y340D/Y341D): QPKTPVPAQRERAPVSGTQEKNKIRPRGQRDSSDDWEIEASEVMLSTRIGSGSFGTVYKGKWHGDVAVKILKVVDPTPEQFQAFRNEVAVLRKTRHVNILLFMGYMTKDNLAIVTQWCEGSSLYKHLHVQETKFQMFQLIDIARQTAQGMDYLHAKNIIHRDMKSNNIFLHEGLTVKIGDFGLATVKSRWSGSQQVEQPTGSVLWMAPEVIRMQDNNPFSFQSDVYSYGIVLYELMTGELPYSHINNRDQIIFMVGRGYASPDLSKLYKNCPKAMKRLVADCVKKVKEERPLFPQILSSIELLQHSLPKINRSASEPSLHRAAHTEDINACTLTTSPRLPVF

[2] = Table 5, read-out: Tubulin Biochem
[3] = HCT-116, Table 4, read-out: HCT-116 IC50
[4] = HPAF-II, Table 4, read-out: HPAF-II IC50
[5] = Table 4, read-out: Tubulin Biochem IC50

SMILES | IC50 (B-Raf kinase) [µM] | IC50 (C-Raf kinase) [µM] | IC50 (HCT-116 cells; [3]) [µM] | IC50 (Porcine Brain Tubulin; [5]) [µM] | IC50 (HPAF-II cells; [4]) [µM] | further results
C[C@@H](NC(=O)c1ncnc(N)c1Cl)c1ncc(C(=O)Nc2cc(C(F)(F)F)c(Cl)cn2)s1 [Tovorafenib, reference compound] |  |  |  |  |  | IC50 (MiaPaca-2 cells; Table 5, read-out: MiaPaca-2): 1 to 10 µM; IC50 (HCT-116 cells; Table 5, read-out: HCT-116): 1 to 10 µM; IC50 (HPAF-II cells; Table 5, read-out: HPAF-II): 1 to 10 µM; IC50 (Porcine Brain Tubulin; [2]): > 100 µM; IC50 ([1]; Table 5, HCT-116 cells, read-out: Tubulin Cellular): 1 to 10 µM
CCCS(=O)(=O)Nc1ccc(F)c(C(=O)c2c[nH]c3ncc(-c4ccc(Cl)cc4)cc23)c1F [Vemurafenib, reference compound] |  |  |  |  |  | IC50 (MiaPaca-2 cells; Table 5, read-out: MiaPaca-2): 1 to 10 µM; IC50 (HCT-116 cells; Table 5, read-out: HCT-116): 1 to 10 µM; IC50 (HPAF-II cells; Table 5, read-out: HPAF-II): 1 to 10 µM; IC50 (Porcine Brain Tubulin; [2]): > 100 µM
CC(C)(C)c1[nH]cnc1/C=c1\[nH]c(=O)/c(=C/c2ccccc2)[nH]c1=O [plinabulin, reference compound] |  |  |  |  |  | IC50 ([1]; ratio of pellet to supernatant vs DMSO control, HCT-116 cells, read-out: IC50 of inhibition of tubulin polymerization, cellular tubulin assay (FIG. 2)): 0.005 µM
CNC(=O)c1cc(-c2cc(-c3cc(NC(=O)c4ccnc(C(C)(C)F)c4)ccc3C)ccn2)ccn1 [reference compound] | < 0.1 | < 0.1 | 0.5 to 1 | > 100 | 1 to 10 | IC50 ([1]; Table 4, HCT-116 cells, read-out: Tubulin Cellular IC50): 1 to 10 µM
CNC(=O)c1cc(-c2cc(-c3cc(NC(=O)c4cnnc(C(F)(F)F)c4)ccc3C)ccn2)ccn1 [reference compound] | < 0.1 | < 0.1 | 1 to 10 | > 100 | 1 to 10 | IC50 (MiaPaca-2 cells; Table 4, read-out: MiaPaca-2 IC50): 1 to 10 µM

Further lines, with some results ahead:

IC50 (B-Raf kinase) [µM] | IC50 (C-Raf kinase) [µM] | IC50 (HCT-116 cells; [3]) [µM] | IC50 (Porcine Brain Tubulin; [5]) [µM] | SMILES | IC50 (HPAF-II cells; [4]) [µM] | further results
< 0.1 | < 0.1 | 1 to 10 | > 100 | Cc1cc(-c2cc(NC(=O)c3ccnc(C(C)(C)F)c3)ccc2C)cc(-c2ccnc(C(N)=O)c2)n1 [reference compound] | 1 to 10 | 
 | < 0.1 | 0.5 to 1 | > 100 | CNC(=O)c1cc(-c2cc(-c3cc(NC(=O)c4ccnc(C(C)(C)C#N)c4)c(F)cc3C)ccn2)ccn1 [reference compound] | 1 to 10 | 
